From ChEMBL document CHEMBL3046894, “Synthesis and Herbicidal Activity of Pyrimidinyl Salicylic and Thiosalicylic Acids” (J Pestic Sci, 1996)
Active and inactive are the calls of the source. No cut-off for these calls is given here.

Tests used:
[1] = tested on: Abutilon theophrasti; assay: Post-emergence herbicidal activity against Abutilon theophrasti (velvetleaf) assessed as mortality at 6.3 g a.i/10 a applied 11 days after germination as foliar spray; type: functional; details: 264 h
[2] = tested on: Gossypium hirsutum; assay: (§1) Pre-emergence phytotoxicity against Gossypium hirsutum (cotton) assessed as mortality at 6.3 g a.i/10 a; type: organism-based; details: in vivo, other
[3] = tested on: Glycine max; assay: Pre-emergence phytotoxicity against Glycine max (soybean) assessed as mortality at 1.6 g a.i/10 a; type: organism-based; details: in vivo, other
[4] = tested on: Glycine max; assay: (§2) Pre-emergence phytotoxicity against Glycine max (soybean) assessed as mortality at 6.3 g a.i/10 a; type: organism-based; details: in vivo, other
[5] = tested on: Zea mays; assay: (§3) Pre-emergence phytotoxicity against Zea mays (maize) assessed as mortality at 1.6 g a.i/10 a; type: organism-based; details: in vivo, other
[6] = tested on: Gossypium hirsutum; assay: Post-emergence phytotoxicity against Gossypium hirsutum (cotton) assessed as mortality at 1.6 g a.i/10 a applied 11 days after germination as foliar spray; type: organism-based; details: in vivo, other, 264 h
[7] = tested on: Gossypium hirsutum; assay: (§4) Post-emergence phytotoxicity against Gossypium hirsutum (cotton) assessed as mortality at 6.3 g a.i/10 a applied 11 days after germination as foliar spray; type: organism-based; details: in vivo, other, 264 h
[8] = (§5) Post-emergence phytotoxicity against Glycine max (soybean) assessed as mortality at 1.6 g a.i/10 a applied 11 days after germination as foliar spray; type: organism-based; details: in vivo, 1.6 g a.i/10 a
[9] = (§6) Post-emergence phytotoxicity against Zea mays (maize) assessed as mortality at 1.6 g a.i/10 a applied 11 days after germination as foliar spray; type: organism-based; details: in vivo, 1.6 g a.i/10 a
[10] = tested on: Cyperus iria; assay: Pre-emergence herbicidal activity against Cyperus iria assessed as growth inhibition at 25 g a.i/10 a; type: functional, organism-based
[11] = tested on: Chenopodium album; assay: Pre-emergence herbicidal activity against Chenopodium album assessed as growth inhibition at 25 g a.i/10 a; type: functional, organism-based
[12] = tested on: Amaranthus retroflexus; assay: Pre-emergence herbicidal activity against Amaranthus retroflexus assessed as growth inhibition at 25 g a.i/10 a; type: functional, organism-based
[13] = tested on: Persicaria nodosa; assay: Pre-emergence herbicidal activity against Persicaria nodosa assessed as growth inhibition at 25 g a.i/10 a; type: functional, organism-based
[14] = tested on: Digitaria sanguinalis; assay: Pre-emergence herbicidal activity against Digitaria sanguinalis (hairy crabgrass) assessed as growth inhibition at 25 g a.i/10 a; type: functional, organism-based
[15] = tested on: Echinochloa crus-galli; assay: Pre-emergence herbicidal activity against Echinochloa crus-galli (barnyard grass) assessed as growth inhibition at 25 g a.i/10 a; type: functional, organism-based
[16] = tested on: Cyperus iria; assay: Post-emergence herbicidal activity against Cyperus iria assessed as growth inhibition at 25 g a.i/10 a applied 11 days after germination as foliar spray; type: functional, organism-based
[17] = tested on: Chenopodium album; assay: Post-emergence herbicidal activity against Chenopodium album assessed as growth inhibition at 25 g a.i/10 a applied 11 days after germination as foliar spray; type: functional, organism-based
[18] = tested on: Amaranthus retroflexus; assay: Post-emergence herbicidal activity against Amaranthus retroflexus assessed as growth inhibition at 25 g a.i/10 a applied 11 days after germination as foliar spray; type: functional, organism-based
[19] = tested on: Persicaria nodosa; assay: Post-emergence herbicidal activity against Persicaria nodosa assessed as growth inhibition at 25 g a.i/10 a applied 11 days after germination as foliar spray; type: functional, organism-based
[20] = tested on: Digitaria sanguinalis; assay: Post-emergence herbicidal activity against Digitaria sanguinalis (hairy crabgrass) assessed as growth inhibition at 25 g a.i/10 a applied 11 days after germination as foliar spray; type: functional, organism-based
[21] = tested on: Echinochloa crus-galli; assay: Post-emergence herbicidal activity against Echinochloa crus-galli (barnyard grass) assessed as growth inhibition at 25 g a.i/10 a applied 11 days after germination as foliar spray; type: functional, organism-based
[22] = tested on: Xanthium strumarium; assay: Pre-emergence herbicidal activity against Xanthium strumarium (cocklebur) assessed as mortality at 1.6 g a.i/10 a; type: functional; details: for mortality at 16 g/ha: Xanthium strumarium, pre-emergence
[23] = tested on: Ipomoea lacunosa; assay: Pre-emergence herbicidal activity against Ipomoea lacunosa assessed as mortality at 1.6 g a.i/10 a; type: functional; details: for mortality at 16 g/ha: Ipomoea lacunosa, pre-emergence
[24] = tested on: Ipomoea lacunosa; assay: Pre-emergence herbicidal activity against Ipomoea lacunosa assessed as mortality at 6.3 g a.i/10 a; type: functional; details: Ipomoea lacunosa, pre-emergence
[25] = tested on: Ipomoea lacunosa; assay: Post-emergence herbicidal activity against Ipomoea lacunosa assessed as mortality at 6.3 g a.i/10 a applied 11 days after germination as foliar spray; type: functional; details: 264 h
[26] = tested on: Abutilon theophrasti; assay: Post-emergence herbicidal activity against Abutilon theophrasti (velvetleaf) assessed as mortality at 1.6 g a.i/10 a applied 11 days after germination as foliar spray; type: functional; details: 264 h
[27] = as §4; type: organism-based; details: in vivo, 6.3 g a.i/10 a
[28] = tested on: Glycine max; assay: Post-emergence phytotoxicity against Glycine max (soybean) assessed as mortality at 6.3 g a.i/10 a applied 11 days after germination as foliar spray; type: organism-based; details: in vivo, other, 264 h
[29] = tested on: Glycine max; assay: as §5; type: organism-based; details: in vivo, other, 264 h
[30] = tested on: Zea mays; assay: as §6; type: organism-based; details: in vivo, other, 264 h
[31] = tested on: Echinochloa crus-galli; assay: Post-emergence herbicidal activity against Echinochloa crus-galli (barnyard grass) assessed as mortality at 1.6 g a.i/10 a applied 11 days after germination as foliar spray; type: functional; details: 264 h
[32] = tested on: Echinochloa crus-galli; assay: Post-emergence herbicidal activity against Echinochloa crus-galli (barnyard grass) assessed as mortality at 6.3 g a.i/10 a applied 11 days after germination as foliar spray; type: functional; details: 264 h
[33] = as §1; type: organism-based; details: in vivo, 6.3 g a.i/10 a, read-out: Activity
[34] = tested on: Gossypium hirsutum; assay: Pre-emergence phytotoxicity against Gossypium hirsutum (cotton) assessed as mortality at 1.6 g a.i/10 a; type: organism-based; details: in vivo, other
[35] = tested on: Zea mays; assay: Pre-emergence phytotoxicity against Zea mays (maize) assessed as mortality at 6.3 g a.i/10 a; type: organism-based; details: in vivo, other
[36] = tested on: Zea mays; assay: Post-emergence phytotoxicity against Zea mays (maize) assessed as mortality at 6.3 g a.i/10 a applied 11 days after germination as foliar spray; type: organism-based; details: in vivo, other, 264 h
[37] = tested on: Echinochloa crus-galli; assay: Pre-emergence herbicidal activity against Echinochloa crus-galli (barnyard grass) assessed as mortality at 6.3 g a.i/10 a; type: functional; details: Echinochloa crus-galli, pre-emergence
[38] = as §2; type: organism-based; details: in vivo, 6.3 g a.i/10 a, read-out: mortality
[39] = tested on: Xanthium strumarium; assay: Post-emergence herbicidal activity against Xanthium strumarium (cocklebur) assessed as mortality at 1.6 g a.i/10 a applied 11 days after germination as foliar spray; type: functional; details: 264 h
[40] = tested on: Xanthium strumarium; assay: Pre-emergence herbicidal activity against Xanthium strumarium (cocklebur) assessed as mortality at 6.3 g a.i/10 a; type: functional; details: Xanthium strumarium, pre-emergence
[41] = tested on: Abutilon theophrasti; assay: Pre-emergence herbicidal activity against Abutilon theophrasti (velvetleaf) assessed as mortality at 6.3 g a.i/10 a; type: functional; details: Abutilon theophrasti, pre-emergence
[42] = tested on: Ipomoea lacunosa; assay: Post-emergence herbicidal activity against Ipomoea lacunosa assessed as mortality at 1.6 g a.i/10 a applied 11 days after germination as foliar spray; type: functional; details: 264 h
[43] = as §3; type: organism-based; details: in vivo, 1.6 g a.i/10 a, read-out: mortality

| Compound | mortality at 63 g/ha [1] [%] | Activity [2] | Activity [3] | Activity [5] | Activity [6] | Activity [7] | mortality at 264 h [8] [%] | growth inhibition (GI) [10] | growth inhibition (GI) [11] | growth inhibition (GI) [12] | growth inhibition (GI) [13] | growth inhibition (GI) [14] | growth inhibition (GI) [15] | growth inhibition (GI) [16] | growth inhibition (GI) [17] | growth inhibition (GI) [18] | growth inhibition (GI) [19] | growth inhibition (GI) [20] | growth inhibition (GI) [21] | mortality at 16 g/ha [26] [%] | also measured |
| --- | --- | --- | --- | --- | --- | --- | --- | --- | --- | --- | --- | --- | --- | --- | --- | --- | --- | --- | --- | --- | --- |
| CCOc1cccc(Oc2nc(OC)cc(OC)n2)c1C(=O)O | > 90 | Non-toxic | Non-toxic | Toxic | Non-toxic | Toxic | > 90 | Active | Active | Active | Active | Active | Active | Active | Active | Active | Active | Active | Active | – | Activity [4]: Toxic; mortality at 264 h [9]: > 90%; mortality at 16 g/ha [22]: < 5%; mortality at 16 g/ha [23]: < 5%; mortality at 63 g/ha [24]: < 5% |
| COc1cc(OC)nc(Sc2cccc(SC)c2C(=O)O)n1 | > 90 | – | – | – | Non-toxic | – | – | – | – | – | – | – | – | – | – | – | – | – | – | > 90 | mortality at 63 g/ha [25]: > 90%; mortality at 264 h [27]: > 90%; Activity [28]: Toxic; Activity [29]: Toxic; Activity [30]: Toxic; mortality at 16 g/ha [31]: < 5%; mortality at 63 g/ha [32]: < 5% |
| COc1cc(OC)nc(Sc2cccc(F)c2C(=O)O)n1 | – | – | Non-toxic | Toxic | Non-toxic | Toxic | > 90 | – | – | – | – | – | – | – | – | – | – | – | – | – | mortality [33]: < 50%; Activity [34]: < 50%; Activity [4]: Non-toxic; Activity [35]: Toxic; Activity [30]: Toxic; Activity [36]: Toxic; Activity [22]: <50%; Activity [23]: <50% |
| COc1cc(OC)nc(Oc2cccc(OC)c2C(=O)O)n1 | > 90 | Non-toxic | Non-toxic | Toxic | Toxic | – | > 90 | Active | Active | Active | Active | Active | Active | Active | Active | Active | Active | Active | Active | > 90 | mortality at 63 g/ha [37]: > 90%; mortality [38]: > 90%; mortality at 264 h [27]: > 90%; mortality at 264 h [9]: > 90%; mortality at 16 g/ha [39]: < 5%; mortality at 63 g/ha [32]: > 90%; mortality at 16 g/ha [22]: < 5%; mortality at 63 g/ha [40]: < 5%; mortality at 16 g/ha [23]: < 5%; mortality at 63 g/ha [24]: < 5%; mortality at 63 g/ha [41]: > 90% |
| CCc1cccc(Oc2nc(OC)cc(OC)n2)c1C(=O)O | > 90 | Non-toxic | Non-toxic | Toxic | Toxic | Toxic | > 90 | Active | Active | Active | Active | Active | Active | Active | Active | Active | Active | Active | Active | > 90 | mortality at 63 g/ha [37]: > 90%; mortality at 16 g/ha [42]: < 5%; Activity [4]: Toxic; mortality at 264 h [9]: > 90%; mortality at 16 g/ha [39]: < 5%; mortality at 63 g/ha [32]: > 90%; mortality at 16 g/ha [22]: < 5%; mortality at 16 g/ha [23]: < 5% |
| COc1cc(OC)nc(Oc2cccc(F)c2C(=O)O)n1 | > 90 | Toxic | Toxic | – | Toxic | Toxic | – | Active | Active | Active | Active | Active | Active | Active | Active | Active | Active | Active | Active | > 90 | mortality at 63 g/ha [37]: > 90%; Activity [34]: Non-toxic; mortality [38]: > 90%; mortality [43]: > 90%; Activity [29]: Toxic; Activity [30]: Toxic; mortality at 63 g/ha [32]: > 90%; mortality at 16 g/ha [23]: < 5%; mortality at 63 g/ha [41]: > 90% |
| COc1cc(OC)nc(Oc2cccc(N)c2C(=O)O)n1 | – | – | – | – | Non-toxic | Toxic | – | Active | Active | Active | inactive | inactive | inactive | Active | Active | Active | Active | Active | Active | < 5 | Activity [29]: Toxic; Activity [30]: Toxic; Activity [36]: Toxic; mortality at 16 g/ha [39]: < 5% |
